Assay results: US20230151334A1, “CULTURE PLATFORMS, METHODS, AND USES THEREOF” (HELSINGIN YLIOPISTO, priority 2020, published 2023)
Entries after “also recorded” stand apart in the source; their conditions may differ.

Key:
[1] = system: TNBC cell line, DU4475; assay: Western blot of ERα in TNBC cell line after anisomycin treatment; type: cell-based
Text: (§1) We observed stress-responsive mitogen-activated protein kinase (MAPKs) pathway activated in the in LMx-Ag, compared to LMx-Al. The nuclear expression of phosphorylated p38 was also visible in the MMECs cultured in LMx-Ag. To confirm the role of stress-responsive mitogen-activated protein kinases in the ERα activation, we used anisomycin to directly activate the pathway in TNBC cell line, DU4475. […] We used inhibitor of the methyltransferase EZH2, which mediates the silencing of ERα and observed the retained expression of ERα (FIG. 4D).

[2] = system: MMECs; assay: Immunofluorescent staining of nuclear ERα in MMECs after compound exposure; type: cell-based, mouse; settings: MMECs after exposure to compound
Procedure: Mouse primary mammary epithelial fragments were isolated with 0.2% collagenase for 1 h at +37° C. Media used for the mouse tissue was DMEM/F12 (Thermo Fisher Scientific) supplemented with 5% horse serum, 5 ug/mL Insulin, 1 µg/mL hydrocortisone, 10 ng/mL EGF, and 100 U PenStrep.
For immunofluorescent analysis 3D cultured breast cancer fragments were fixed with 4% paraformaldehyde for 20 min at room temperature and washed three times with PBS. The tissue fragments were permeabilized with 0.25% Triton X-100 in PBS for 10 min at RT and blocked in IF buffer (7.7 mM NaN3, 0.1% BSA, 0.2% Triton X-100, and 0.05% Tween 20 in PBS) supplemented with 10% (vol/vol) normal goat serum for1-1.5 h. The fragments were then incubated with the primary antibody diluted in blocking solution overnight at +4° C. Following incubation, fragments were washed three times with IF buffer (20 min each wash) and then incubated with the appropriate Alexa Fluor secondary antibody diluted in IF buffer with 10% goat serum. After 60 min of incubation at RT, the fragments were washed with IF buffer as before and the nuclei were counterstained with Hoechst 33258 (Sigma). Slides containing tissue fragments were mounted with ImmuMount reagent. Images of the structures were acquired using a Leica TCS SP8 CARS confocal microscope using a HC PL APO CS2 40x objective. […]

[3] = system: PDEC-N and PDEC-BC; assay: Immunofluorescent staining of nuclear ERα and phosphorylated p38 in PDEC-N and PDEC-BC after compound exposure; type: cell-based, human
Procedure: Fresh tissue was obtained from elective breast cancer surgeries. Tissue was collected from both the tumor tissue and the area surrounding the tumor (non-tumor samples). Also tissue from reduction mammoplasties (RMP) were collected. From every tumor, one portion was taken for immunohistochemical analysis (IHC), for DNA/RNA/protein isolation, and the rest was used for isolation of fragments and 3D culture. For isolation of human breast cancer fragments, breast cancer tissue was incubated with 0.2% collagenase in MammoCult media produced by StemCell technologies (supplemented with 4 ug/mL heparin, MammoCult proliferation supplements, 0.1 µg/mL 10.000 UI/mL PenStrep, Amphotericin, and 25 µg/mL Gentamycin) with gentle shaking at 37° C. overnight. The resulting cell suspension was then centrifuged at 1,300 rpm for 3 min, washed once with MammoCult and plated in 8-chamber plates. Matrices used for the cultures were: Agarose (UltraPure™ Low Melting Point Agarose, Invitrogen™), Collagen (Collagen I Rat tail, Corning), Matrigel (Matrigel Basement Matrix Growth Factor Reduced, 8.8 mg/mL, Corning), Egg white, Ovomucine, GrowDex (15 mg/mL, UPM-Kymmene OYj), Alginate (Alginic acid sodium salt, Aldrich) and Alginate-RGD (Sodium Alginate MVG GRGDSP, NovaMatrix, NOVATACH). Ovomucin was isolated from chicken egg whites according to an established protocol (Omana and Wu, 2009, J Agric Food Chem 57, 3596-3603). Briefly, ovomucin was isolated from egg white using isoelectric precipitation in the presence of 100 mM NaCl solution at pH adjusted to 6.0. The resulting mixture was stored overnight at 4° C. in a refridgerator followed by centrifugation. The precipitate was re-suspended in 500 mM NaCl solution at pH 6.0 again and stored overnight at 4° C. The dispersion was centrifuged, and the precipitate was purified by dialyzing against water overnight. Dialysed sample was freeze-dried under the vacuum. For gelation, the solid ovomucin powder was dissolved in MilliQ (18 W) water using Ultra-Turrax (IKA) mixer.
For immunofluorescent analysis 3D cultured breast cancer fragments were fixed with 4% paraformaldehyde for 20 min at room temperature and washed three times with PBS. The tissue fragments were permeabilized with 0.25% Triton X-100 in PBS for 10 min at RT and blocked in IF buffer (7.7 mM NaN3, 0.1% BSA, 0.2% Triton X-100, and 0.05% Tween 20 in PBS) supplemented with 10% (vol/vol) normal goat serum for1-1.5 h. The fragments were then incubated with the primary antibody diluted in blocking solution overnight at +4° C. Following incubation, fragments were washed three times with IF buffer (20 min each wash) and then incubated with the appropriate Alexa Fluor secondary antibody diluted in IF buffer with 10% goat serum. After 60 min of incubation at RT, the fragments were washed with IF buffer as before and the nuclei were counterstained with Hoechst 33258 (Sigma). Slides containing tissue fragments were mounted with ImmuMount reagent. Images of the structures were acquired using a Leica TCS SP8 CARS confocal microscope using a HC PL APO CS2 40x objective.
as §1

[4] = system: ERα downstream targets PGR and GREB1 in PDEC-BC; assay: QRT-PCR of ERα target genes in PDEC-BC cultures after tamoxifen/antiestrogen treatment; type: cell-based, human
Procedure: Instead of anisomycin, the stress activated protein kinase pathway is also activated by multiple other factors e.g oxidative stress. We observed, if the PDEC cultures were performed under a higher oxygen concentration, such as in air-liquid interface, the functional ERα was preserved together with the activation of p38 (FIG. 5A). We treated these PDEC-BC with antiestrogens and observed a suppression in ERα downstream targets PGR and GREB1 (FIG. 5B).
We exposed the human PDEC-N and PDEC-BC cultures to the additional compressive forces with the magnet mediated mechanical compression (FIG. 5C). […] We treated the compressed PDEC-BC with tamoxifen and observed a suppression in ERα downstream targets PGR and GREB1 (FIG. 5E).

[5] = system: TNBC cell line DU4475; assay: Immunofluorescent staining of nuclear ERα in TNBC cell line DU4475 after EZH2 inhibitor; type: cell-based; settings: TNBC cell line DU4475 after exposure to compound
[6] = PDEC-BC (PDEC-T) after exposure to compound
[7] = PDEC-N after exposure to compound
[8] = PDEC-BC exposed to magnet-mediated compression

Compound | ERα expression (Western blot) [1] | nuclear ERα (immunofluorescent staining) [2] | nuclear ERα (immunofluorescent staining) [3, 6] | phosphorylated p38 (immunofluorescent staining) ([3]; PDEC-BC after exposure to compound) | nuclear ERα (immunofluorescent staining) [3, 7] | phosphorylated p38 (immunofluorescent staining) [3, 7] | GREB1 expression [4, 8] | PGR expression (QRT-PCR) [4, 8] | PGR expression (QRT-PCR) ([4]; PDEC-BC exposed to magnet-mediated compression, listed as Tamoxifen) | PGR expression (QRT-PCR) ([4]; air-liquid interface (ALI) cultured PDEC-BC, o/n treatment) | nuclear ERα (immunofluorescent staining) [5]
COc1ccc(C[C@H]2NC[C@H](O)[C@H]2OC(C)=O)cc1 [anisomycin] | able to activate the ERα expression; also recorded: upregulation of ERα | activation of nuclear ERα | activation of nuclear ERα | activation of phosphorylated-38 | activation of nuclear ERα | activation of phosphorylated-38 |  |  |  |  | 
CC/C(=C(\c1ccccc1)c1ccc(OCCN(C)C)cc1)c1ccccc1 [tamoxifen] |  |  |  |  |  |  | suppression | suppression | suppresses | downregulation | 
CC[C@H](C)n1cc(C)c2c(C(=O)NCc3c(C)cc(C)[nH]c3=O)cc(-c3ccc(N4CCNCC4)nc3)cc21 [GSK-126] |  | activation of nuclear ERα | activation of nuclear ERα |  | activation of nuclear ERα |  |  |  |  |  | activation of nuclear ERα
